# Data taken from ChEMBL document CHEMBL1201862, “PubChem BioAssay data set” (2004).
#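 Cells were grown in 96-well plates and exposed to each compound for 48 hours at five concentrations; endpoints were interpolated linearly between bracketing concentrations, or set to the highest concentration if not reached. GI50 = concentration required for 50% inhibition of growth.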 Active and inactive are the calls of the source. Cut-off read from the data, not from the text of the source: active = GI50 up to about 1.1 µM and inactive = higher.
# Legend:
# Experiment in all cases: inhibition of tumour cell growth, NCI panel, 48 h
# [1] = system: IGROV-1
# [2] = system: DU-145
# [3] = system: COLO 205
# [4] = system: Malme-3M
# [5] = system: SK-MEL-2
# [6] = system: HL-60
# [7] = system: CAKI-1
# [8] = system: MCF7
# [9] = system: SF-268
# [10] = system: HCT-15
# [11] = system: T47D
# [12] = system: NCI-H522
# [13] = system: KM12
# [14] = system: BT-549
# [15] = system: HCC 2998
# [16] = system: NCI/ADR-RES
# [17] = system: MDA-N
# [18] = system: OVCAR-8
# [19] = system: SNB-75
# [20] = system: SNB-19
Structure (SMILES),GI50 [1],GI50 [2],GI50 [3],GI50 [4],GI50 [5],GI50 [6],GI50 [7],GI50 [8],GI50 [9],GI50 [10],GI50 [11],GI50 [12],GI50 [13],GI50 [14],GI50 [15],GI50 [16],GI50 [17],GI50 [18],GI50 [19],GI50 [20]
CC1(C)CCCC2CC2CCC(C)(C)C1=O (stereo not given),> 100 µM (inactive),> 100 µM (inactive),18.5 µM (inactive),58.3 µM (inactive),31.8 µM (inactive),18.1 µM (inactive),> 100 µM (inactive),18.3 µM (inactive),> 100 µM (inactive),71.9 µM,> 100 µM (inactive),37.5 µM (inactive),56.2 µM (inactive),> 100 µM (inactive),0.242 µM (active),28.8 µM (inactive),29.5 µM (inactive),82.8 µM (inactive),71 µM (inactive),> 100 µM (inactive)
CCCCC1NC=Nc2c1ccc1c2[nH]c2ccccc21 (stereo not given),3.08 µM (inactive),2.6 µM (inactive),1.79 µM (inactive),5.33 µM (inactive),3.82 µM (inactive),1.78 µM (inactive),3.77 µM (inactive),1.55 µM (inactive),4 µM (inactive),2.39 µM,1.45 µM (inactive),1.84 µM (inactive),5.82 µM (inactive),2.02 µM (inactive),1.71 µM (inactive),1.95 µM (inactive),1.75 µM (inactive),2.03 µM (inactive),4.02 µM (inactive),4.58 µM (inactive)
CC(C)CCC1(O)O[C@H]2C[C@H]3[C@@H]4CCC5CC(=O)C=C[C@]5(C)[C@H]4CC[C@]3(C)[C@H]2[C@@H]1C (stereo not given in full),15.6 µM (inactive),14.7 µM (inactive),14.4 µM (inactive),14.9 µM (inactive),15.2 µM (inactive),4.45 µM (inactive),14.5 µM (inactive),7.73 µM (inactive),13.4 µM (inactive),11.2 µM,12 µM (inactive),1.8 µM (inactive),11.8 µM (inactive),14.3 µM (inactive),0.148 µM (active),15.6 µM (inactive),13.2 µM (inactive),14.2 µM (inactive),14.3 µM (inactive),17.5 µM (inactive)
COC(=O)C1CCC(=O)N1C(c1ccc2c(c1)OCO2)c1ccc2c(c1)OCO2 (stereo not given),> 100 µM (inactive),> 100 µM (inactive),> 100 µM (inactive),> 100 µM (inactive),> 100 µM (inactive),> 100 µM (inactive),> 100 µM (inactive),> 100 µM (inactive),> 100 µM (inactive),> 100 µM,> 100 µM (inactive),> 100 µM (inactive),> 100 µM (inactive),> 100 µM (inactive),> 100 µM (inactive),> 100 µM (inactive),> 100 µM (inactive),> 100 µM (inactive),> 100 µM (inactive),> 100 µM (inactive)
C#CC(O)/C=C/CCCCCCC#CC/C=C\CC#CCCCCCCCCC(O)C#C (stereo not given),0.407 µM (active),5.83 µM (inactive),2.58 µM (inactive),1.95 µM (inactive),2.59 µM (inactive),1.74 µM (inactive),4.29 µM (inactive),17.4 µM (inactive),9.59 µM (inactive),3.27 µM,10.5 µM (inactive),0.174 µM (active),3.05 µM (inactive),6.71 µM (inactive),3.63 µM (inactive),3.39 µM (inactive),1.99 µM (inactive),1.91 µM (inactive),9.1 µM (inactive),20 µM (inactive)
COC(=O)c1ccc2c(O)c(O)ccc2c1,17.2 µM (inactive),16.4 µM (inactive),13.6 µM (inactive),11.8 µM (inactive),1.18 µM (inactive),2.02 µM (inactive),25.1 µM (inactive),18.5 µM (inactive),19.4 µM (inactive),13.6 µM,19.5 µM (inactive),15.2 µM (inactive),17.1 µM (inactive),12.5 µM (inactive),15.1 µM (inactive),20.1 µM (inactive),1.74 µM (inactive),16.1 µM (inactive),12.8 µM (inactive),14.4 µM (inactive)
